US20260176289A1, “SMALL MOLECULE INHIBITORS OF KRAS PROTEINS” (Merck Sharp & Dohme LLC, priority 2022, published 2026)
Read-outs that look alike come from different tables or passages of the source.

Key:
AsPC-1 cells = assay: Cellular phospho-ERK assay, AsPC-1 cells (homozygous KRAS-G12D); type: cell-based; conditions: Homo sapiens, ASPC1, 2 h, read-out: AsPC1 pERK IC50
In short: (§1)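 Inhibition of ERK phosphorylation was determined after treating attached cells with compound for 2 h; top concentration 30 μM, serial 1:3 dilution. Each well's p-ERK:total ERK ratio, read by SureFire Ultra, was fitted with a four-parameter model for IC50.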

KRAS-G12D = KRAS-G12D (Homo sapiens, UniProt P01116, G12D); assay: SOS-catalyzed nucleotide exchange assay (Procedure A, TR-FRET), KRAS-G12D; type: biochemical; conditions: nucleotide exchange, read-out: KRAS G12D GNE IC50
In short: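 Signal ratio (520/495 nm, excitation 340 nm) reports Bodipy-GDP retention on biotinylated RAS after SOS-catalyzed exchange with 3 mM GTP. SOS was 40 nM, except 160 nM for G12V. Room-temperature exchange lasted 60 min (90 min for G12V), following a 60 min compound preincubation.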

MKN-1 cells = assay: Cellular phospho-ERK assay, MKN-1 cells (amplified wild-type KRAS); type: cell-based; conditions: Homo sapiens, read-out: MKN1 pERK IC50
In short: as §1

KRAS-G12V = KRAS-G12V (Homo sapiens, UniProt P01116, G12V); assay: SOS-catalyzed nucleotide exchange assay (Procedure A, TR-FRET), KRAS-G12V; type: biochemical; conditions: nucleotide exchange, read-out: KRAS G12V GNE IC50
In short: (§2)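 RAS (G12C carries C51S/C80L/C118S) loaded with Bodipy-GDP, complexed with Tb-streptavidin; cpd 60 min RT; + SOS/3 mM GTP. G12C 3/40 nM, WT 1/40, NRAS 1.25/40 nM RAS/SOS, 60 min; G12V 1.25/160 nM, 90 min. Normalized to DMSO and saturating inhibitor; 4PL fit.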

SW620 cells = assay: Cellular phospho-ERK assay, SW620 cells (homozygous KRAS-G12V); type: cell-based; conditions: Homo sapiens, read-out: SW620 pERK IC50
In short: as §1

KRAS-WT = KRAS-WT (Homo sapiens, UniProt P01116); assay: SOS-catalyzed nucleotide exchange assay (Procedure A, TR-FRET), KRAS-WT; type: biochemical; conditions: nucleotide exchange, read-out: KRAS WT GNE IC50
In short: as §2

[1] = amplified wild-type KRAS, 2 hours
[2] = SW-620, 2 hours compound incubation

KRAS-WT, sequence (P01116 with tags, fused parts or gaps isoform P01116-2): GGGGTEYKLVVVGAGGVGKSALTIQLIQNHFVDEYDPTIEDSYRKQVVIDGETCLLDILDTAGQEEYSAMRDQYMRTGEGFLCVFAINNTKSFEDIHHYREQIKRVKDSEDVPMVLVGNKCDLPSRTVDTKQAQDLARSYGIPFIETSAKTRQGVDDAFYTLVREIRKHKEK
KRAS-G12V, sequence (P01116 with tags, fused parts or gaps isoform P01116-2 G12V): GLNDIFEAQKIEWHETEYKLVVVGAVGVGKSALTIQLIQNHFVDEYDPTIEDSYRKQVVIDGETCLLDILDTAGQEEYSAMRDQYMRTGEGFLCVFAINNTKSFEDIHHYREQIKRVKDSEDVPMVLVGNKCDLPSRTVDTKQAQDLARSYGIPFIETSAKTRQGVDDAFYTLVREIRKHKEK
KRAS-G12D, sequence (P01116 with tags, fused parts or gaps isoform P01116-2 G12D): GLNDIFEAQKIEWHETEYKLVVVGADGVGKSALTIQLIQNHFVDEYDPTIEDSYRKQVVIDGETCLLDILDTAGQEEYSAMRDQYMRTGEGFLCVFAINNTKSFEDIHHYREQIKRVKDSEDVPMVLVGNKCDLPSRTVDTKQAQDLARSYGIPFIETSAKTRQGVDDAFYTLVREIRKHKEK

Row | SMILES | IC50 (AsPC-1 cells; KRAS-G12D, 2 hours) [nM] | IC50 (KRAS-G12D) [nM] | IC50 (MKN-1 cells; [1]) [nM] | IC50 (KRAS-G12V) [nM] | IC50 (SW620 cells; SW-620, KRAS-G12V, 2 hours) [nM] | IC50 (KRAS-WT) [nM] | IC50 (AsPC-1 cells; 2 hours compound incubation) [nM] | IC50 (MKN-1 cells; 2 hours compound incubation) [nM] | IC50 (SW620 cells; [2]) [nM]
1 | C=C1CCCc2cc3[nH]ncc3c(-c3nccc4c3sc3nc(OC[C@@]56CCCN5C[C@H](F)C6)nc(N5CCOC[C@@](C)(O)C5)c34)c21 [Ex-115, (6S)-4-(2-(((2R,7aS)-2-fluorotetrahydro-1H-pyrrolizin-7a(5H)-yl)methoxy)-8-(5-methylene-5,6,7,8-tetrahydro-1H-benzo[f]indazol-4-yl)pyrido[4′,3′:4,5]thieno [2,3-d]pyrimidin-4-yl)-6-methyl-1,4-oxazepan-6-ol] | 46.6 | 3.98 | 24.6 | 13.2 | 18.9 | 10.8 | – | – | –
2 | C[C@@H]1CCCc2cc3[nH]ncc3c(-c3nccc4c3sc3nc(OC[C@@]56CCCN5C[C@H](F)C6)nc(N5CCOC[C@@](C)(O)C5)c34)c21 [Ex-116] | 56.6 | 4.87 | 46.4 | 17.9 | 36.4 | 9.84 | – | – | –
3 | CN(C)C[C@@]1(COc2nc(N3CCOC[C@@](C)(O)C3)c3c(n2)sc2c(-c4c(C5(F)CC5)c(Cl)cc5[nH]ncc45)nccc23)CC1(F)F [Ex-132, (6S)-4-(8-(6-chloro-5-(1-fluorocyclo-propyl)-1H-indazol-4-yl)-2-(((R)-1-((dimethylamino)-methyl)-2,2-di-fluorocyclopropyl)-methoxy)pyrido [4′,3′:4,5]thieno[2,3-d]pyrimidin-4-yl)-6-methyl-1,4-oxaze-pan-6-ol] | – | 5.45 | – | 13.9 | – | 15.7 | 24 | 44.4 | 14.5
4 | CC(C)(C)c1c(Cl)cc2[nH]ncc2c1-c1nccc2c1sc1nc(OC[C@@]34CCCN3C[C@H](F)C4)nc(N3CCOC[C@@](C)(O)C3)c12 [Ex-156, (6S)-4-(8-(5-(tert-butyl)-6-chloro-1H-indazol-4-yl)-2-(((2R,7aS)-2-fluorotetrahydro-1H-pyrrolizin-7a(5H)-yl)methoxy)pyrido[4′,3′:4,5]thieno[2,3-d]pyrimidin-4-yl)-6-methyl-1,4-oxazepan-6-ol] | – | 5.21 | – | 16.7 | – | 18.9 | 76.1 | 113 | 45.2
5 | C[C@@]1(O)COCCN(c2nc(OC[C@@]34CCCN3C[C@H](F)C4)nc3sc4c(-c5c6cn[nH]c6cc6cccc(Cl)c56)nccc4c23)C1 [Ex-161, (6S)-4-(8-(5-chloro-1H-benzo[f]indazol-4-yl)-2-(((2R,7aS)-2-fluorotetrahydro-1H-pyrrolizin-7a(5H)-yl)methoxy)pyrido[4′,3′:4,5]thieno[2,3-d]pyrimidin-4-yl)-6-methyl-1,4-oxazepan-6-ol] | – | 6.04 | – | 11.4 | – | 15.2 | 61.7 | 28.4 | 32.1
6 | C[C@@]1(O)COCCN(c2nc(OC[C@@]34CCCN3C[C@H](F)C4)nc3sc4c(-c5c6cn[nH]c6cc6ccc(F)c(Cl)c56)nccc4c23)C1 [Ex-162] | – | 19.8 | – | 47.5 | – | 43.6 | 133 | 106 | 48
7 | CCc1csc2cc3[nH]ncc3c(-c3nccc4c3sc3nc(OC[C@@]56CCCN5C[C@H](F)C6)nc(N5CCOC[C@@](C)(O)C5)c34)c12 [Ex-168, (6S)-4-(8-(5-ethyl-1H-thieno[3,2-f]indazol-4-yl)-2-(((2R,7aS)-2-fluorotetrahydro-1H-pyrrolizin-7a(5H)-yl)methoxy)pyrido [4′,3′:4,5]thieno[2,3-d]pyrimidin-4-yl)-6-methyl-1,4-oxazepan-6-ol] | – | 3.17 | – | 5.49 | – | 7.25 | 31.4 | 25.8 | 13
8 | C#CC1=CCCc2cc3[nH]ncc3c(-c3nccc4c3sc3nc(OC[C@@]56CCCN5C[C@H](F)C6)nc(N5CCOC[C@@](C)(O)C5)c34)c21 [Ex-173, (6S)-4-(8-(5-ethynyl-7,8-dihydro-1H-benzo[f]indazol-4-yl)-2-(((2R,7aS)-2-fluorotetrahydro-1H-pyrrolizin-7a(5H)-yl)methoxy)pyrido[4′,3′:4,5]thieno[2,3-d]pyrimidin-4-yl)-6-methyl-1,4-oxazepan-6-ol] | – | 18.9 | – | 50.1 | – | 38.2 | 161 | 56.9 | 61.1
9 | C/C=C1\CCCc2cc3[nH]ncc3c(-c3nccc4c3sc3nc(OC[C@@]56CCCN5C[C@H](F)C6)nc(N5CCOC[C@@](C)(O)C5)c34)c21 [Ex-174, (6S)-4-(8-((E)-5-ethyl-idene-5,6,7,8-tetrahydro-1H-benzo[f]indazol-4-yl)-2-(((2R,7aS)-2-fluoro-tetrahydro-1H-pyrrolizin-7a(5H)-yl)methoxy)pyr-ido[4′,3′:4,5]thieno[2,3-d]pyrimidin-4-yl)-6-meth-yl-1,4-oxazepan-6-ol] | – | 23.6 | – | 26.2 | – | 63.8 | 254 | 73.6 | 91.1
10 | C#C[C@@H]1CCCc2cc3[nH]ncc3c(-c3nccc4c3sc3nc(OC[C@@]56CCCN5C[C@H](F)C6)nc(N5CCOC[C@@](C)(O)C5)c34)c21 [Ex-175] | – | 82.1 | – | 66.3 | – | 186 | 856 | 324 | 278
11 | Cc1cc2[nH]ncc2c(-c2nccc3c2sc2nc(OC[C@@]45CCCN4C[C@H](F)C5)nc(N4CCOCC5(CCCO5)C4)c23)c1C(F)(F)F (stereo partly drawn) [Ex-197, 10-(2-(((2R,7aS)-2-fluoro-tetrahydro-1H-pyrrolizin-7a(5H)-yl)methoxy)-8-(6-methyl-5-(trifluorometh-yl)-1H-indazol-4-yl)pyrido [4′,3′:4,5]thieno[2,3-d]pyrimidin-4-yl)-1,7-dioxa-10-azaspiro[4.6]undecane] | – | 200 | – | 186 | – | 432 | 393 | 513 | 459
12 | Cc1cc2[nH]ncc2c(-c2nccc3c2sc2nc(OC[C@@]45CCCN4C[C@H](F)C5)nc(N4CCOC[C@]5(CCO5)C4)c23)c1C(F)(F)F [Ex-198, (4S)-9-(2-(((2R,7aS)-2-fluorotetrahydro-1H-pyr-rolizin-7a(5H)-yl)meth-oxy)-8-(6-methyl-5-(tri-fluoromethyl)-1H-indazol-4-yl)pyrido[4′,3′:4,5]thieno[2,3-d]pyrimidin-4-yl)-1,6-dioxa-9-azaspiro [3.6]decane] | – | 36 | – | 33.5 | – | 132 | 140 | 120 | 74.3
13 | Cc1cc2[nH]ncc2c(-c2nccc3c2sc2nc(OC[C@@]45CCCN4C[C@H](F)C5)nc(N4CCOCC5(CC(C)O5)C4)c23)c1C(F)(F)F (stereo partly drawn) [Ex-199, 9-(2-(((2R,7aS)-2-fluoro-tetrahydro-1H-pyrrolizin-7a(5/7)-yl)methoxy)-8-(6-methyl-5-(trifluorometh-yl)-1H-indazol-4-yl)pyrido [4′,3′:4,5]thieno[2,3-d]pyr-imidin-4-yl)-2-methyl-1,6-dioxa-9-azaspiro[3.6] decane] | – | 86.8 | – | 92.6 | – | 287 | 374 | 313 | 190
14 | CCC1(O)COCCN(c2nc(OC[C@@]34CCCN3C[C@H](F)C4)nc3sc4c(-c5c(C(F)(F)F)c(C)cc6[nH]ncc56)nccc4c23)C1 (stereo partly drawn) [Ex-201, 6-ethyl-4-(2-(((2R,7aS)-2-fluorotetrahydro-1H-pyr-rolizin-7a(5H)-yl)meth-oxy)-8-(6-methyl-5-(tri-fluoromethyl)-1H-indazol-4-yl)pyrido[4′,3′:4,5]thieno[2,3-d]pyrimidin-4-yl)-1,4-oxazepan-6-ol] | – | 285 | – | 206 | – | 404 | 923 | 373 | 220
15 | C[C@@]1(O)COCCN(c2nc(OC[C@@]34CCCN3C[C@]3(CC3(F)F)C4)nc3sc4c(-c5c(C6CC6)c(Cl)cc6[nH]ncc56)nccc4c23)C1 [Ex-212, (6S)-4-(8-(6-chloro-5-cyclopropyl-1H-indazol-4-yl)-2-(((1R,7a'S)-2,2-difluorodihydro-1′H,3′H-spiro[cyclo-propane-1,2′-pyrrol-izin]-7a′(5′H)-yl)-methoxy)pyrido [4′,3′:4,5]thieno[2,3-d]pyrimidin-4-yl)-6-methyl-1,4-oxaze-pan-6-ol] | – | 4.75 | – | 39.8 | – | 17.8 | 67.3 | 89.8 | 56.1
